# Test results as given in patent US7220587B2 (priority 2001, dated 2007).
# Assays:
# [1] = test system: ein6/een mutant seedlings; assay: taxol treatment of dark-grown ein6/een double mutant seedlings; format: in vivo, Arabidopsis thaliana
# Source text: (§1) The role of ethylene in the reduction of hypocotyl and root elongation has not yet been elucidated. One possibility relates to the theory that cortical microtubules associated with the plasma membrane may direct the cellulose synthase complex that is responsible for cell wall deposition. The drug taxol acts to stabilize microtubules by inhibiting microtubule depolymerization (Schiff and Horwitz 1981) and may inhibit the shift in cortical microtubules upon ethylene treatment,(Heinstein and Chang 1994). To determine if taxol could affect the ethylene insensitivity phenotype of ein6/een mutants, wild-type and ein6/een mutants were given a 10 day taxol treatment in the dark (Example 12).
# (§2) Wild-type Landsberg seedlings or ein6/een mutant seedlings were grown in the presence of either 0 μM, 0.1 μM, or 1 μM taxol for 10 days in the dark, following the method of Roman and Ecker (Phil. Trans. R. Soc. Lond. B. 350: 75–81, 1995, which is herein incorporated by reference in its entirety). […] Hypocotyl cells of the taxol-treated tissue appeared shorter and rounder than wild-type cells. […] From these observations, it has been concluded that the ein6/een double mutation, (or possibly the een single mutation) is responsible for the taxol sensitivity phenotype.
# [2] = test system: Wild-type Landsberg seedlings; assay: taxol treatment of dark-grown wild-type seedlings; format: in vivo, Arabidopsis thaliana; settings: 10 days in the dark
# Source text: as §1, §2
structure (smiles),measurement,setting,value
CC(=O)O[C@H]1C(=O)[C@@]2(C)[C@H]([C@H](OC(=O)c3ccccc3)[C@]3(O)C[C@H](OC(=O)[C@H](O)[C@@H](NC(=O)c4ccccc4)c4ccccc4)C(C)=C1C3(C)C)[C@]1(OC(C)=O)CO[C@@H]1C[C@@H]2O [taxol],seedling phenotype (length),"[1]; 0.1 μM taxol, 10 days in the dark",shortened phenotype
same,seedling length compared to non-treated ein6/een mutant seedlings,"[1]; 1 μM taxol, 10 days in the dark",significantly shorter
same,sensitivity of mutants to taxol,"[1]; low levels (0.1 μM) of taxol, 10 day treatment in the dark",especially sensitive
same,seedling size compared to untreated seedlings,[2]; 0.1 μM taxol,did not have an altered size
same,effect on seedling elongation,[2]; 1 μM taxol,inhibition of elongation
